The target of data set [1] is Muscarinic acetylcholine receptor. Nature of the data set: Displacement of [3H]-QNB from muscarinic receptor in Wistar rat brain membrane after 60 mins by liquid scintillation counting. Format: cell membranes. In general terms: Loss of bound radioactivity is the signal in a displacement assay; it reports binding, not function.
In data set [2] the target is T1, Alpha-1B adrenergic receptor (Rattus norvegicus, UniProt P15823).
T1 sequence (P15823 whole entry): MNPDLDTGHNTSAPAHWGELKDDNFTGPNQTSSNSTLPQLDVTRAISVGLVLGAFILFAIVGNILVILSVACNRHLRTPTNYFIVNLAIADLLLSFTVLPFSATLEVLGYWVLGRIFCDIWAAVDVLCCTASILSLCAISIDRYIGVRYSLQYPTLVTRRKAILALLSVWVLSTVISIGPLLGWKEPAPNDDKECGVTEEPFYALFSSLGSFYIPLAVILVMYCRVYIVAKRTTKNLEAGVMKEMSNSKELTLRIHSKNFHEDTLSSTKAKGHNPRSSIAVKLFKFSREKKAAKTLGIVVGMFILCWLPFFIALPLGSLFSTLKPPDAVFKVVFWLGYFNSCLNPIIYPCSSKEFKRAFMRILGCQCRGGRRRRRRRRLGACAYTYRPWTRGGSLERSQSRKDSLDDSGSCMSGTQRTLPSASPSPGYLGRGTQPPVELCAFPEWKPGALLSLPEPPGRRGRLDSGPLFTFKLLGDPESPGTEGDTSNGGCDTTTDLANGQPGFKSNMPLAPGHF
Nature of the data set: Displacement of [3H]-prazosin from alpha1B adrenergic receptor in Wistar rat liver membrane after 45 mins by liquid scintillation counting. It is filed as cell membranes.

Data set [3] has as its target T2, Alpha-2A adrenergic receptor (Rattus norvegicus, UniProt P22909).
T2 sequence (P22909 whole entry): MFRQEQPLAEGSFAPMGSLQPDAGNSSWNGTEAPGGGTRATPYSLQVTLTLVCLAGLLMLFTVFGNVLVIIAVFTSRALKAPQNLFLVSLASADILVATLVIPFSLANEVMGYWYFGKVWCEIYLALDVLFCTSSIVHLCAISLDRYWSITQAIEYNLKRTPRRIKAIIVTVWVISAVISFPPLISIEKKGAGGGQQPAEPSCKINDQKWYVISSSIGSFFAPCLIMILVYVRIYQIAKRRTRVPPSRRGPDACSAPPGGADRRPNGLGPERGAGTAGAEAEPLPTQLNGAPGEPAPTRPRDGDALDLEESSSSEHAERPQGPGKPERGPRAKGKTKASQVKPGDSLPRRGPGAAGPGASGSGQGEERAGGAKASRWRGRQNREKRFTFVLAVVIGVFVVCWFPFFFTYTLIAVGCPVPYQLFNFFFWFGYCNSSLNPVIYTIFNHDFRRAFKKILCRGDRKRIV
Description: Displacement of [3H]-RX821002 from alpha2A adrenergic receptor in Wistar rat cortical membrane after 45 mins by liquid scintillation counting. Format: cell membranes.

Data set [4] addresses T3, 5-hydroxytryptamine receptor 2C (Homo sapiens, UniProt P28335).
T3 sequence (P28335 whole entry): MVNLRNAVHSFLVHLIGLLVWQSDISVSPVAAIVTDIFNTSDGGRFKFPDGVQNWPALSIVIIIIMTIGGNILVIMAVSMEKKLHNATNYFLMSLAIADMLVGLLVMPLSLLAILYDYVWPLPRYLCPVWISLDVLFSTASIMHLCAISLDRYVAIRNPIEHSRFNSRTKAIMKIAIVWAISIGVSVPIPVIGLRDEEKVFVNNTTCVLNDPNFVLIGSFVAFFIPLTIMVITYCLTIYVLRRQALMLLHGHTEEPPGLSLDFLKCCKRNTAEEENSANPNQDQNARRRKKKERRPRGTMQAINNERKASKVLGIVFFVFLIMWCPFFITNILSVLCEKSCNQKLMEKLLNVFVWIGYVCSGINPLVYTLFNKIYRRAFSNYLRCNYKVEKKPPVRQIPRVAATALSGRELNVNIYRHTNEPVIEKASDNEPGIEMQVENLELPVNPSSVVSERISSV
Nature of the data set: Displacement of [3H]-mesulergine from human 5HT2C receptor after 60 mins by liquid scintillation counting.

For data set [5], the target named is T4, 5-hydroxytryptamine receptor 1A (Rattus norvegicus, UniProt P19327).
T4 sequence (P19327 whole entry): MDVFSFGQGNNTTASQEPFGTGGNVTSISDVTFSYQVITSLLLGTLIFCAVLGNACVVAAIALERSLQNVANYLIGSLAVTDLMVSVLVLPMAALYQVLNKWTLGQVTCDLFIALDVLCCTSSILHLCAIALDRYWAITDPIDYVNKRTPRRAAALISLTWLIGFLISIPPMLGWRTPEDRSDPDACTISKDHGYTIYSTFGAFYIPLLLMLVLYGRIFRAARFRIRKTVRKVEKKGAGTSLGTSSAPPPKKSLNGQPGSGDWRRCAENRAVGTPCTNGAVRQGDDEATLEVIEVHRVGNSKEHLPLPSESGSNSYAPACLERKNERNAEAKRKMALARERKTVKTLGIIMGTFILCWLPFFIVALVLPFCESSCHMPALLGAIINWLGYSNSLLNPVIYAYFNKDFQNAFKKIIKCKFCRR
Description: Displacement of [3H]-OH-8-DPAT from 5HT1A receptor in Wistar rat hippocampal membrane after 15 mins by liquid scintillation counting. It is filed as cell membranes, Hippocampus.

The target in data set [6] is 5-hydroxytryptamine receptor 2A (Rattus norvegicus, UniProt P14842). Nature of the data set: Displacement of [3H]-ketanserin from 5HT2A receptor in Wistar rat cortical membrane after 15 mins by liquid scintillation counting. It is filed as cell membranes.
In a further data set the target is T5, D(4) dopamine receptor (Homo sapiens, UniProt P21917).
T5 sequence (P21917 whole entry): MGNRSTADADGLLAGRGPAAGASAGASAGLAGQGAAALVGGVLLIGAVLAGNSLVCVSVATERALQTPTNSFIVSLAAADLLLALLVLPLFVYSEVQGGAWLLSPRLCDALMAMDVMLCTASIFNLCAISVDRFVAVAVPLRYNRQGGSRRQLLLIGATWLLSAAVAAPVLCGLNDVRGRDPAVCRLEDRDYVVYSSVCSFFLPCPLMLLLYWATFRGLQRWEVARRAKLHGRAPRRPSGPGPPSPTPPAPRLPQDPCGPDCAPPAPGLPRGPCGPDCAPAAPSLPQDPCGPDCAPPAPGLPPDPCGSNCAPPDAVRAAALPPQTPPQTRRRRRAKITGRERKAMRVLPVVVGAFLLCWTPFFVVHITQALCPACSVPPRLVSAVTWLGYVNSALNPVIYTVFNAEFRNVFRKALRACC
Nature of the data set: Displacement of [3H]-YM-09151-2 from human D4 dopamine receptor after 120 mins by liquid scintillation counting.

Another data set concerns the target D(2) dopamine receptor (Rattus norvegicus, UniProt P61169). Description: Displacement of [3H]-YM-09151-2 from D2 dopamine receptor in Wistar rat brain striatal membrane after 60 mins by liquid scintillation counting. It is filed as cell membranes, Striatum.
In the next data set the test system is Plasma. Description: Drug metabolism in Wistar rat plasma assessed as p-hydroxylated metabolite level at 50 mg/kg, ip after 24 hrs. More on the design: dose 50 mg/kg, route intraperitoneal. The note with it: in vivo. It is filed as ADME, organism-based.

Chain of D(2) dopamine receptor (P61169 whole entry): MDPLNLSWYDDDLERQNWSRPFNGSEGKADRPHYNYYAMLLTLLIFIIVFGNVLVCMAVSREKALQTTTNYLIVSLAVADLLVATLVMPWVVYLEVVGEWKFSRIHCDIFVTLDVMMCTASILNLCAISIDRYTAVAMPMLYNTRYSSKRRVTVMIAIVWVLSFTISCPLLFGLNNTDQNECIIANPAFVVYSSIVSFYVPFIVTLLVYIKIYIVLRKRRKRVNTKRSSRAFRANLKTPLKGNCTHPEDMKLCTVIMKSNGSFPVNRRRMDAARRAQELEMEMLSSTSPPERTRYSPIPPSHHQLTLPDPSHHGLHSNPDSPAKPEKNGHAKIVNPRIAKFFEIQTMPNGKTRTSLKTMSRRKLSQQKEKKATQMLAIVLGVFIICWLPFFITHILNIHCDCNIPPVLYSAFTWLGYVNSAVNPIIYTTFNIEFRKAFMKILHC
Chain of 5-hydroxytryptamine receptor 2A (P14842 whole entry): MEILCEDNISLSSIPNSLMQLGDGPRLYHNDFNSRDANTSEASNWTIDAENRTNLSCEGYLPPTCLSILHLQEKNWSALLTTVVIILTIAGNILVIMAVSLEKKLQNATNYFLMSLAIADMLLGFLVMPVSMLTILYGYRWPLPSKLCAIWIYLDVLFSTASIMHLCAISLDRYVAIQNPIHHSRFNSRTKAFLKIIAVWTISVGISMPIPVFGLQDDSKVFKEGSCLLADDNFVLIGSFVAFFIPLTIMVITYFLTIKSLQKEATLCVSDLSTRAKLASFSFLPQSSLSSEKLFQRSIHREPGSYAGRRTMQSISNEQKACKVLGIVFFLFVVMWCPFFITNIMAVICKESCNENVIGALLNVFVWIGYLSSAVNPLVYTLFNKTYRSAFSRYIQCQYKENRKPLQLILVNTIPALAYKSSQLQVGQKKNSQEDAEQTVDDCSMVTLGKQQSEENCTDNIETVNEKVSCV

On to `Oc1ccc(N2CCN(Cc3cnn(-c4ccc(Cl)cc4)c3)CC2)cc1`, for which the Ki (commonly the dissociation constant of the complex between target and ligand, obtained from inhibition or displacement) in [1] was greater than 30 µM; in data set [2], 1.15 µM; in data set [3], 6.45 µM; in data set [4] it was 12.3 µM; in data set [5] it was 5.87 µM; in data set [6], 8.22 µM. Moreover, the inhibitory constant (Ki) worked out at 0.034 µM on D(4) dopamine receptor and 0.53 µM on D(2) dopamine receptor.
As for `Clc1ccc(-n2cc(CN3CCN(c4ccccc4)CC3)cn2)cc1`, the Ki in data set [1] was greater than 30 µM; in data set [2], 3 µM; in data set [3], 2.49 µM; in data set [4], 8.44 µM; in data set [5], 0.21 µM; in data set [6] it was 6.82 µM. Further, the values for the Ki at D(4) dopamine receptor and on D(2) dopamine receptor were 0.17 µM and 0.38 µM, respectively. Further, in the data set on Plasma, the Drug metabolism result is “Active”.

These data come from ChEMBL document CHEMBL2331488, “Biotransformation of LASSBio-579 and pharmacological evaluation of p-hydroxylated metabolite a N-phenylpiperazine antipsychotic lead compound” (Eur J Med Chem, 2013).
